This is an account of results in ChEMBL document CHEMBL1201862, “PubChem BioAssay data set” (2004).

Assay in all cases: NCI tumour cell line growth inhibition, 48 h
For assay [1], the system named is HCT-15.
For assay [2], the system named is SK-MEL-5.
In assay [3] the test system is 786-0.
Assay [4] relates to UACC-257.
The subject of assay [5] is SF-539.
In assay [6] the test system is HL-60.
The test system of assay [7] is MDA-MB-231.
For assay [8], the system named is NCI-H522.
Assay [9] deals with LOX IMVI.
Assay [10] has as its system OVCAR-3.
For assay [11], the system named is MDA-MB-435.
Assay [12] concerns HOP-62.
In assay [13] the test system is CCRF-CEM.
The test system of assay [14] is M14.
In assay [15] the test system is RPMI-8226.
Assay [16] deals with MCF7.
For assay [17], the system named is SF-295.
Assay [18] relates to SK-MEL-2.
The test system of assay [19] is IGROV-1.
For assay [20], the system named is Malme-3M.

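Step 1: Grow cells in 96-well plates. Step 2: Expose to compound for 48 hours at 5 concentrations. Step 3: Interpolate endpoints linearly; if unreached, use highest concentration. Abbreviation: GI50, concentration required for 50% inhibition of growth.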 The source made the active and inactive calls. Rule as the data show it: active = GI50 up to about 1.1 µM and inactive = higher.

In the case of `CC1=C(C(=O)NNC(=O)c2ccccc2)CC(C(=O)NNC(=O)c2ccccc2)=C(C)N1`, the GI50 in assay [1] was over 100 µM; in [2] it was > 100 µM (inactive); in [3], > 100 µM (inactive); in assay [4], > 100 µM (inactive); in assay [5] it was > 100 µM (inactive); in [6], > 100 µM (inactive). Also, the GI50 in [7], in assay [8], in [9], in assay [10], in assay [11] and in [12] was > 100 µM (inactive) throughout. The GI50 in [13], in [14], in assay [15], in assay [16], in [17] and in [18] was > 100 µM (inactive) throughout. Moreover, the GI50 in assay [19] is > 100 µM (inactive).
In the case of `c1ccc(-c2nn(-c3ccccc3)[n+](-c3ccccc3)n2)cc1` [TETRAZOLIUM RED], the GI50 in [1] was over 100 µM; in assay [2], 3.49 µM (inactive); in assay [3], 14.3 µM (inactive); in assay [20], 0.394 µM (active); in [4], 2.85 µM (inactive); in [5], 33 µM (inactive). Moreover, the GI50 in assay [6] is 0.184 µM (active); in assay [7], 20 µM (inactive); in [8], > 37.9 µM (inactive); in [9], 11.9 µM (inactive); in assay [10] it was 0.191 µM (active); in assay [11], 11.1 µM (inactive). Also, the GI50 was 19.5 µM (inactive) in assay [12]; 0.718 µM (active) in assay [13]; 10.7 µM (inactive) in [14]; 2.88 µM (inactive) in assay [16]; > 56.1 µM (inactive) in assay [17]; 36.8 µM (inactive) in assay [18]. Besides, the GI50 in assay [19] is 3.1 µM (inactive).
For `C1=Nc2sc3c(c2C2=NCCN12)CCCC3`, the GI50 in assay [1] is 16.4 µM; in [2], 18 µM (inactive); in [3], 17.4 µM (inactive); in assay [20], 16.9 µM (inactive); in [4], 16.3 µM (inactive); in assay [6], 13.6 µM (inactive). Further, the GI50 in [7] was 14.2 µM (inactive); in assay [8] it was 15.9 µM (inactive); in assay [9] it was 14.7 µM (inactive); in [10], 17.6 µM (inactive); in assay [11], 18.5 µM (inactive); in assay [12] it was 20 µM (inactive). Moreover, the GI50 is 20.8 µM (inactive) in [15]; 18.3 µM (inactive) in assay [16]; 21.5 µM (inactive) in [17]; 0.465 µM (active) in assay [18]; 15.4 µM (inactive) in [19].
For the compound `CC(=O)OC1CN2CCC1CC2` (stereo not drawn) [ACECLIDINE], the GI50 in [1] was over 100 µM; in assay [2], > 100 µM (inactive); in [3] it was > 100 µM (inactive); in assay [20], > 100 µM (inactive); in assay [4], > 100 µM (inactive); in assay [5], > 100 µM (inactive). In addition, the GI50 in assay [6], in assay [7], in [8], in assay [9], in assay [10] and in assay [11] was > 100 µM (inactive) throughout. In addition, the GI50 in [12], in assay [13], in assay [14], in assay [15], in assay [16] and in assay [17] was > 100 µM (inactive) each time. In addition, the GI50 in assay [19] is > 100 µM (inactive).
As to `CN(C)Cc1cc(C=O)cc(CN(C)C)c1O`, the GI50 in assay [1] was over 100 µM; in assay [2] it was > 100 µM (inactive); in assay [3], > 100 µM (inactive); in [20] it was > 100 µM (inactive); in assay [4] it was > 100 µM (inactive); in assay [5], > 100 µM (inactive). Moreover, the GI50 in [6], in [7], in assay [8], in [9], in assay [10] and in [11] was > 100 µM (inactive) in each case. Besides, the GI50 in assay [12], in assay [13], in assay [15], in [16], in assay [17] and in assay [19] was > 100 µM (inactive) throughout.
Consider `CCOC(=O)c1nc2ccccc2nc1Nc1ccc(OC)c(OC)c1`, for which the GI50 is over 100 µM in assay [1]; 63.7 µM (inactive) in [2]; 77.1 µM (inactive) in assay [3]; > 100 µM (inactive) in assay [20]; > 100 µM (inactive) in assay [5]; > 100 µM (inactive) in assay [6]. Also, the GI50 in [7], in assay [8], in assay [10], in assay [11], in [12] and in assay [13] was > 100 µM (inactive) throughout. The GI50 in assay [14], in assay [15], in [16], in assay [17], in [18] and in assay [19] was > 100 µM (inactive) each time.
`CCC(C)C(C(=O)N/N=C1/SCC(=O)N1c1ccccc1)C(=O)N/N=C1/SCC(=O)N1c1ccccc1` (stereo not drawn): the GI50 in assay [1] is over 100 µM; in assay [2] it was 22 µM (inactive); in [3] it was > 100 µM (inactive); in assay [20] it was 21.2 µM (inactive); in assay [4], > 100 µM (inactive); in assay [5] it was > 100 µM (inactive). The GI50 was > 100 µM (inactive) in assay [6]; 28.8 µM (inactive) in assay [7]; 56.9 µM (inactive) in assay [8]; 38.4 µM (inactive) in [9]; 28.6 µM (inactive) in [10]; 17.9 µM (inactive) in [11]. Besides, the GI50 in [12] was 79.3 µM (inactive); in assay [13], 46.1 µM (inactive); in assay [14], 47.1 µM (inactive); in assay [16], 34.1 µM (inactive); in [17], > 100 µM (inactive); in assay [18], 33.7 µM (inactive). The GI50 in [19] is > 100 µM (inactive).
With `Cc1cc(S(=O)(=O)N/C(=C(\C#N)C(=O)c2ccc(Cl)cc2)[n+]2ccc(N(C)C)cc2)c([S-])cc1Cl`, the GI50 in assay [1] is 48.6 µM; in assay [2], > 100 µM (inactive); in assay [3], > 100 µM (inactive); in assay [20] it was 0.836 µM (active); in assay [4] it was < 0.01 µM (active); in assay [5], 67.3 µM (inactive). Also, the GI50 in assay [6] is > 100 µM (inactive); in assay [7], > 100 µM (inactive); in assay [8], 28.9 µM (inactive); in assay [10], 45.1 µM (inactive); in assay [11], > 100 µM (inactive); in assay [12], 38.1 µM (inactive). Moreover, the GI50 in assay [13] was 64 µM (inactive); in assay [14], 41.9 µM (inactive); in assay [15], 45.2 µM (inactive); in assay [16] it was 71.3 µM (inactive); in [17], 62.2 µM (inactive); in assay [18] it was 4.84 µM (inactive). The GI50 in assay [19] was > 100 µM (inactive).
